Drawing on publication PMC7439407 (Science Advances, 2020), this text covers Kd for one compound.

Usually Kd stands for the free concentration of one partner at which half of the binding sites on the other are occupied at equilibrium, for simple one-to-one binding. Lower therefore signals higher affinity.

The assay has as its target arginine repressor ArgR. Put plainly: SPR. The format is binding, Staphylococcus aureus.

For `O=c1oc2ccccc2c(O)c1C(c1ccc(Cl)c(Cl)c1)c1c(O)c2ccccc2oc1=O` [DCH, 3,3′-(3,4-dichlorobenzylidene)-bis-(4-hydroxycoumarin)], the Kd is 0.082 µM.
